We go through 15 compounds from patent publication US9012446B2, “Amino-oxazines and amino-dihydrothiazine compounds as beta-secretase modulators and methods of use” (Amgen Inc., priority 2010, dated 2015).

One test concerns Abeta 40. As to the kind of experiment: In vivo inhibition of beta-secretase: Abeta 40 reduction in CSF and brain of the rat. The following applies: 10 mpk, after 4 hrs. An excerpt: In Vivo Inhibition of Beta-Secretase
Several animal models, including mouse, rat, dog, and monkey, may be used to screen for inhibition of beta-secretase activity in vivo following administration of a test compound sample. Animals used in this invention can be wild type, transgenic, or gene knockout animals. For example, the Tg2576 mouse model, prepared and conducted as described in Hsiao et al., 1996, Science 274, 99-102, and other non-transgenic or gene knockout animals are useful to analyze in vivo inhibition of Amyloid beta peptide (Abeta) production in the presence of inhibitory test compounds. Generally, 2 to 18 month old Tg2576 mice, gene knockout mice or non-transgenic animals are administered test compounds formulated in vehicles, such as cyclodextran, phosphate buffers, hydroxypropyl methylcellulose or other suitable vehicles. One to twenty-four hours following the administration of compound, animals are sacrificed, and brains as well as cerebrospinal fluid (CSF) and plasma are removed for analysis of A-beta levels and drug or test compound concentrations (Dovey et al., 2001, Journal of Neurochemistry, 76,173-181) Beginning at time 0, animals are administered by oral gavage, or other means of delivery such as intravenous injection, an inhibitory test compound of up to 100 mg/kg in a standard, conventional formulation, such as 2% hydroxypropyl methylcellulose, 1% Tween80. A separate group of animals receive 2% hydroxypropyl methylcellulose, 1% Tween80 alone, containing no test compound, and serve as a vehicle-control group. At the end of the test period, animals are sacrificed and brain tissues, plasma or cerebrospinal fluid are collected. Brains are either homogenized in 10 volumes (w/v) of 0.2% diethylamine (DEA) in 50 mM NaCl (Best et al., 2005, Journal of Pharmacology and Experimental Therapeutics, 313, 902-908), or in 10 volumes of 0.5% TritonX-100 in Tris-buffered saline (pH at about 7.6). Homogenates are centrifuged at 355,000 g, 4° C. for 30 minutes. CSF or brain supernatants are then analyzed for the presence of A-beta peptide by specific sandwich ELISA assays based on ECL (Electrochemiluminescence) technology. For example, rat Abeta40 is measured using biotinylated-4G8 (Signet) as a capture antibody and Fab40 (an in-house antibody specific to the C-terminal of Abeta40) as a detection antibody. For example, 4 hours after administration of 30 mg/kg oral dose of the test compound in 2% hydroxypropyl methylcellulose, 1% Tween80 (pH2.2) to 200 g male Sprague Dawley rats, amyloid beta peptide levels are measured for reduction by X % and Y % in cerebrospinal fluid and brain, respectively, when compared to the levels measured in the vehicle-treated rats. • Actual vehicles used: Oral: 2% HPMC, 1% Tween80, pH 2.2 • IV: 5% EtOH, 45% Propylene glycol in 5% Dextrose
The compounds of the invention may be shown to reduce the formation and/or deposition of amyloid beta peptide in the cerebrospinal fluid (CSF) as well as in the brain of a mouse or rat at either 3 mpk, 10 mpk or 30 mpk (mpk=mg compound per kg weight of the animal) dosing concentrations after 4 hrs.

The subject of another test is Aβ40. As to the kind of experiment: In vitro BACE cell-based assay (Aβ40 sandwich ELISA, cells stably expressing APP). The following applies: Homo sapiens. A digest of the protocol:
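Read-out is Aβ40 in cell supernatants, quantified by sandwich ELISA (capture 3 h, detection 2 h, both 4° C) with Delfia time-resolved fluorescence. Cells stably expressing APP were dosed across 10 concentrations from 100 μM or 10 μM top, 0.1% DMSO final; IC50 fitted from percent of control.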

Another test has as its target BACE (Homo sapiens, UniProt P56817). As to the kind of experiment: In vitro enzymatic BACE FRET assay. The class given is biochemical. The conditions noted are these: average IC50, enzyme assay; read-out: BACE 1 FRET assay. Put shortly:
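Fluorescence […] after Tris quench reports cleavage of a 50 nM quenched peptide substrate over 1 h. Beforehand, 0.2 nM enzyme sits 1 h with inhibitor dilutions. Buffer: 0.05 M acetate pH 4.2, 100 uM genapol, 10% DMSO final.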

The mark [1] stands for this setting: Abeta 40, rat CSF, read-out: % reduction of rat CSF levels at 10 pmk.
The mark [2] stands for this setting: Abeta 40, rat brain, read-out: % reduction of rat brain levels at 10 mpk.
Setting [3] is: HEK293, average IC50, read-out: HEK cell assay.
The mark [4] stands for this setting: HEK293, average IC50, cell assay, HEK cells.

Where two headings read alike, the source gives them in different places.

BACE, sequence (P56817 46-501, species assumed): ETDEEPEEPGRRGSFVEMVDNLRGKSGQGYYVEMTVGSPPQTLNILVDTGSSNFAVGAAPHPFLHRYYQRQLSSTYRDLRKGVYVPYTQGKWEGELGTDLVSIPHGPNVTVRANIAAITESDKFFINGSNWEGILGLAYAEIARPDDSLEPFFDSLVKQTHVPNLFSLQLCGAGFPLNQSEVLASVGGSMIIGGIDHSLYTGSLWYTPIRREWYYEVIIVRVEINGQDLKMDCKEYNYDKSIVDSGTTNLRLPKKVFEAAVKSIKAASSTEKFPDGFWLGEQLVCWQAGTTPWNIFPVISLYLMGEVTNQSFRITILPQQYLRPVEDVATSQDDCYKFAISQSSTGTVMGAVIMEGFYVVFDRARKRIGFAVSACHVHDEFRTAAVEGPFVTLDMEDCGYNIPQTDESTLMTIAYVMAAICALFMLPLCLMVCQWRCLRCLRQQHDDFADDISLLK

Consider `CC1(C#Cc2cc(F)c3c(c2)[C@]2(CCOC(N)=N2)c2cc(-c4cccnc4F)ccc2O3)COC1` [Example 17A, (S)-4′-fluoro-7′-(2-fluoropyridin-3-yl)-2′-((3-methyloxetan-3-yl)ethynyl)-5,6-dihydrospiro[[1,3]oxazine-4,9′-xanthen]-2-amine], for which the results for the inhibition in vivo at 10 mg/kg with Abeta 40 (setting [1]) and in the test on Abeta 40 (setting [2]) were 44% and 37%, respectively. Besides, the IC50 in the test on Aβ40 (setting [3]) is 2.6 nM; at BACE, 3.3 nM.
Regarding `NC1=N[C@@]2(COC1)c1cc(-c3cccnc3F)ccc1Oc1cnc(-c3ccnc(F)c3)cc12` [Example 30, (S)-7-(2-fluoropyridin-3-yl)-3-(2-fluoropyridin-4-yl)-2′,6′-dihydrospiro[chromeno[2,3-c]pyridine-5,3′-[1,4]oxazin]-5′-amine], the inhibition in vivo at 10 mg/kg turned out to be 67% with Abeta 40 (setting [1]) and 62% in the test with Abeta 40 (setting [2]). The IC50 in the test with Aβ40 (setting [4]) was 1.7 nM; on BACE it was 0.3 nM.
In the same order, the values of `NC1=N[C@@]2(COC1)c1cc(-c3cccnc3F)ccc1Oc1cnc(N3CCC(F)(F)CC3)cc12` [Example 32, (S)-3-(4,4-difluoropiperidin-1-yl)-7-(2-fluoropyridin-3-yl)-2′,6′-dihydrospiro[chromeno[2,3-c]pyridine-5,3′-[1,4]oxazin]-5′-amine] are 37%, 26%, 1.2 nM and 0.6 nM.
In the same order, the values of `CC(C)(C)COc1cc2c(cn1)Oc1ccc(-c3cccnc3F)cc1[C@@]21COCC(N)=N1` [Example 33, (S)-7-(2-fluoropyridin-3-yl)-3-(neopentyloxy)-2′,6′-dihydrospiro[chromeno[2,3-c]pyridine-5,3′-[1,4]oxazin]-5′-amine] are 61%, 48%, 1.1 nM and 0.4 nM.
In the same order, the values of `NC1=N[C@@]2(COC1)c1cc(-c3cccnc3F)ccc1Oc1c(F)cc(-c3ccnc(F)c3)cc12` [Example 36A, (S)-4′-fluoro-7′-(2-fluoropyridin-3-yl)-2′-(2-fluoropyridin-4-yl)-2,6-dihydrospiro[[1,4]oxazine-3,9′-xanthen]-5-amine] are 26%, 25%, 2.9 nM and 0.4 nM.
Turning to `CC(C)(F)COc1cc(F)c2c(c1)[C@]1(COCC(N)=N1)c1cc(-c3cccnc3F)ccc1O2` [Example 37A, (S)-4′-fluoro-2′-(2-fluoro-2-methylpropoxy)-7′-(2-fluoropyridin-3-yl)-2,6-dihydrospiro[[1,4]oxazine-3,9′-xanthen]-5-amine], the inhibition in vivo at 10 mg/kg with Abeta 40 (setting [1]) was 44%; with Abeta 40 (setting [2]) it was 39%. Also, the IC50 in the test on Aβ40 (setting [4]) was determined as 1.3 nM; on BACE it was 0.2 nM.
In the same order, the values of `NC1=N[C@@]2(COC1)c1cc(-c3cccnc3F)ccc1Oc1c(F)cc(C3=CCOCC3)cc12` [Example 40, (S)-2′-(3,6-dihydro-2H-pyran-4-yl)-4′-fluoro-7′-(2-fluoropyridin-3-yl)-2,6-dihydrospiro[[1,4]oxazine-3,9′-xanthen]-5-amine] are 33%, 15%, 3 nM and 0.3 nM.
In the case of `CC1(C#Cc2cc(F)c3c(c2)[C@]2(COCC(N)=N2)c2cc(-c4cccnc4F)ccc2O3)COC1` [Example 41, (S)-4′-fluoro-7′-(2-fluoropyridin-3-yl)-2′-((3-methyloxetan-3-yl)ethynyl)-2,6-dihydrospiro[[1,4]oxazine-3,9′-xanthen]-5-amine], the inhibition in vivo at 10 mg/kg was determined as 13% in the test with Abeta 40 (setting [1]) and 23% in the test on Abeta 40 (setting [2]). In addition, the IC50 in the test on Aβ40 (setting [4]) is 1.9 nM; on BACE, 0.5 nM.
In the case of `CC(C)(C)COc1cnc2c(c1)[C@]1(COCC(N)=N1)c1cc(-c3cccnc3F)ccc1O2` [Example 55, (S)-7-(2-fluoropyridin-3-yl)-3-(neopentyloxy)-2′,6′-dihydrospiro[chromeno[2,3-b]pyridine-5,3′-[1,4]oxazin]-5′-amine], the inhibition in vivo at 10 mg/kg in the test on Abeta 40 (setting [1]) was determined as 65%; in the test with Abeta 40 (setting [2]) it was 51%. For the same compound, the IC50 in the test with Aβ40 (setting [3]) was 0.4 nM; on BACE it was 0.8 nM.
In the same order, the values of `NC1=N[C@@]2(CCO1)c1cc(-c3cccnc3F)ccc1Oc1ncc(-c3ccnc(F)c3)cc12` [Example 60, (S)-7-(2-fluoropyridin-3-yl)-3-(2-fluoropyridin-4-yl)-5′,6′-dihydrospiro[chromeno[2,3-b]pyridine-5,4′-[1,3]oxazin]-2′-amine] are 56%, 25%, 11 nM and 12.2 nM.
Consider `CC1(C#Cc2cnc3c(c2)[C@]2(CCOC(N)=N2)c2cc(-c4cccnc4F)ccc2O3)COC1` [Example 61, (S)-7-(2-fluoropyridin-3-yl)-3-((3-methyloxetan-3-yl)ethynyl)-5′,6′-dihydrospiro[chromeno[2,3-b]pyridine-5,4′-[1,3]oxazin]-2′-amine], for which the inhibition in vivo at 10 mg/kg was found to be 70% in the test on Abeta 40 (setting [1]) and 55% with Abeta 40 (setting [2]). Also, the IC50 in the test with Aβ40 (setting [3]) stood at 2.4 nM; on BACE, 2.8 nM.
Consider `NC1=N[C@@]2(COC1)c1cc(-c3cccnc3)ccc1Oc1c(F)cc(C3=CCCOC3)cc12` [Example 63, (S)-2′-(5,6-dihydro-2H-pyran-3-yl)-4′-fluoro-7′-(pyridin-3-yl)-2,6-dihydrospiro[[1,4]oxazine-3,9′-xanthen]-5-amine], for which the inhibition in vivo at 10 mg/kg in the test on Abeta 40 (setting [1]) is 19%; in the test on Abeta 40 (setting [2]) it was 16%. For the same compound, the IC50 in the test with Aβ40 (setting [4]) amounted to 0.5 nM; at BACE, 0.3 nM.
For `NC1=N[C@]2(COC1)c1cc(C3=CCOCC3)ccc1Oc1ccc(-c3cccnc3F)cc12` [Example 64, (R)-2′-(3,6-dihydro-2H-pyran-4-yl)-7′-(2-fluoropyridin-3-yl)-2,6-dihydrospiro[[1,4]oxazine-3,9′-xanthen]-5-amine], the results for the inhibition in vivo at 10 mg/kg with Abeta 40 (setting [1]) and with Abeta 40 (setting [2]) were 8% and 4%, respectively. In addition, the figures for the IC50 in the test on Aβ40 (setting [4]) and on BACE were 5.2 nM and 0.6 nM, respectively.
`NC1=N[C@]2(COC1)c1cc(-c3ccnc(F)c3)ccc1Oc1ccc(-c3cccnc3F)cc12` [Example 65, (R)-2′-(2-fluoropyridin-3-yl)-7′-(2-fluoropyridin-4-yl)-2,6-dihydrospiro[[1,4]oxazine-3,9′-xanthen]-5-amine]: the inhibition in vivo at 10 mg/kg in the test with Abeta 40 (setting [1]) came out at 14%; in the test with Abeta 40 (setting [2]) it was 55%. The IC50 in the test with Aβ40 (setting [4]) stood at 18.2 nM; at BACE it was 1.6 nM.
Regarding `NC1=N[C@@]2(COC1)c1cc(-c3cccnc3F)ccc1Oc1c(F)cc(N3CCC(F)(F)CC3)cc12` [Example 86, (S)-2′-(4,4-difluoropiperidin-1-yl)-4′-fluoro-7′-(2-fluoropyridin-3-yl)-2,6-dihydrospiro[[1,4]oxazine-3,9′-xanthen]-5-amine], the inhibition in vivo at 10 mg/kg turned out to be 12% in the test on Abeta 40 (setting [1]) and 11% in the test on Abeta 40 (setting [2]). This compound registered an IC50 in the test on Aβ40 (setting [4]) of 2.6 nM.
